Data published in US20100196885A1, “METHODS OF […] COMPOUNDS FOR USE IN TREATING COPD AND OTHER DISEASES” (priority 2007, published 2010).

Key:
COPD patients = experiment: Spirometry in post-TIO therapy patients; type: in vivo, human; conditions: most post-TIO therapy patients
Description: (§1) COPD patients have elevated levels of D/I in plasma, urine and sputum, which might respond to prolonged bronchodilation. To determine if clinical effects of Tiotropium (TIO) affect tissue degradation of the lung in COPD, clinically stable patients with COPD (n=9) not on TIO prior to the study and at one month and a second month after initiating therapy were tested. Other anticholinergic bronchodilators were stopped prior to TIO, and other therapies/disease treatments were unchanged for the two months of study. To these patients, 18 mcg TIO was administered each 24 hours. D/I in plasma, urine and sputum were measured by liquid chromatography and mass spectrometry (LC/MS) prior to the study and at one month and two months after the study.
The improvement in spirometric indices were usually concordant with levels of D/I in patients.

lung elastin degradation = experiment: D/I levels in plasma, urine and sputum of COPD patients before and after Tiotropium, by LC/MS; type: in vivo, human
Description: The mass spectrometric method was used for direct measurement of D/I in urine, plasma and sputum as markers of elastin degradation in healthy controls, patients with α1-antitrypsin deficiency (AATD) and non-AATD-related COPD. Preparation of specimens of urine and sputum and measurements by mass spectrometry (LC/MS) were performed as previously described in Ma S, Lieberman S, Turino G M and Lin Y Y: The detection and quantitation of free desmosine and isodesmosine in human urine and their peptide-bound forms in sputum. PNAS 2003, 100:12941-12943, which is incorporated by reference as if recited in full herein. D and I standard (mixed 50% D and 50% I) were purchased from Elastin Products (Owensville, Mich.), and all other reagents were from Sigma (St. Louis, Mo.). MCX cation exchange cartridges (3 ml) were obtained from Waters (Milford, Mass.), and CF1 cellulose powders were purchased from Whatman (Clifton, N.J.).
Urine samples. Twenty-four hour urine samples were collected and analyzed as previously described in Ma S, et al., 2003.
Plasma samples. Plasma samples were obtained after centrifuging venous blood specimens at 2500 r.p.m. for 25 min. Samples were stored at −20 C until used. One ml of plasma and 1 ml of concentrated HCl (37%) were placed in a glass vial. After air in the sample was displaced with a stream of nitrogen, the sample was acid hydrolyzed for 24 hours in 6N HCl. After evaporation to dryness, the residue was dissolved in 2 ml of a mixed solution of n-butanol/acetic acid/6 N HCl (4:1:1, by volume). The sample solution was loaded onto a 3 ml CF1 cartridge. The CF1 cartridge was prepared by introducing 3 ml of the slurry of 5% CF1 cellulose powder in a mixture of n-butanol/acetic acid/water (4:1:1, by volume). The cartridge was washed 3 times with 3 ml of n-butanol/acetic acid/water mixture, and D and I adsorbed in the CF1 cartridge were eluted with 3 ml of water. The eluate was evaporated to dryness under vacuum at 45° C. and the residue was dissolved in 0.1 ml of HPLC mobile phase for LC/MS analysis. For analysis in plasma, samples were processed and measured in duplicate and the results averaged.
Sputum Samples. Sputum samples were processed as previously described in Ma S, et al., 2003 with the following modification: The acid hydrolyzed samples were chromatographed using a CF1 cartridge as described in the treatment of plasma samples. Each sputum sample was processed and measured in duplicate and the results averaged. Sputum was obtained from 3-hour morning collections spontaneously produced. When subjects could not voluntarily produce sputum, sputum induction was induced by 3% saline inhalation for 20 minutes as previously described in Ma S, et al., 2003.
as §1, with “To determine if clinical effects of Tiotropium (TIO) affect tissue degradation of the lung in COPD, clinically stable patients with COPD (n=9) not on TIO prior to the study and at one month and a second month after initiating therapy were tested.” left out

`C[N+]1(C)[C@@H]2C[C@@H](OC(=O)C(O)(c3cccs3)c3cccs3)C[C@H]1[C@@H]1O[C@@H]12` [Tiotropium] was tested, and the “Force Vital Capacity (FVC)” value (COPD patients) was “significant increase”, the “Forced Expired Volume in 1 second (FEV1)” value (COPD patients) was “significant increase” and the “Residual Volume (RV)” value (COPD patients) was “decreases”. For the same compound, the “ratio of FEV1/FVC” value (COPD patients) was “significant increase”, the “Significant decreases in D/I levels in plasma (patients showing decrease)” value (lung elastin degradation; COPD patients, 18 mcg TIO each 24 hours, one and two months, plasma, LC/MS) was 10 out of 12 and the “Significant decreases in D/I levels in sputum (patients showing decrease)” value (lung elastin degradation; COPD patients, 18 mcg TIO each 24 hours, one and two months, sputum, LC/MS) was “all 12 patients”. For the same compound, the “Significant decreases in D/I levels in urine (patients showing decrease)” value (lung elastin degradation; COPD patients, 18 mcg TIO each 24 hours, one and two months, urine, LC/MS) was 10 out of 12, the “Calculated percentage decreases in D/I levels after TIO treatment, time course” value (lung elastin degradation; COPD patients, one month vs second month of TIO) was “decreases beginning after one month with further decreases observed in the second month” and the “D/I levels in plasma, urine and sputum after two months of treatment” value (lung elastin degradation; COPD patients, two months of TIO) was “significant reductions”. The “Lung elastin degradation, overall response from percent decreases in D/I levels” value (lung elastin degradation; all 12 COPD patients, prolonged TIO treatment) was “some decrease in lung elastin degradation”.
